Patent US10208019B2, “GLP-1 receptor agonists and uses thereof” (Pfizer Inc., priority 2016, dated 2019)

Molecular target: human GLP-1R (Homo sapiens, UniProt P43220, G168S)
Experiment: CHO GLP-1R Clone H6—Assay 1: HTRF cAMP cell-based functional agonist assay (high GLP-1R density)
Settings: for EC50: read-out: Assay 1 EC50, CHO GLP-1R Clone H6, cAMP HTRF, geometric mean; for Emax: read-out: Assay 1 Emax (%), CHO GLP-1R Clone H6
[1] = relative to saturating concentration of full agonist GLP-1 (1 μM), arithmetic mean

human GLP-1R, sequence (P43220 24-463 G168S limits assumed): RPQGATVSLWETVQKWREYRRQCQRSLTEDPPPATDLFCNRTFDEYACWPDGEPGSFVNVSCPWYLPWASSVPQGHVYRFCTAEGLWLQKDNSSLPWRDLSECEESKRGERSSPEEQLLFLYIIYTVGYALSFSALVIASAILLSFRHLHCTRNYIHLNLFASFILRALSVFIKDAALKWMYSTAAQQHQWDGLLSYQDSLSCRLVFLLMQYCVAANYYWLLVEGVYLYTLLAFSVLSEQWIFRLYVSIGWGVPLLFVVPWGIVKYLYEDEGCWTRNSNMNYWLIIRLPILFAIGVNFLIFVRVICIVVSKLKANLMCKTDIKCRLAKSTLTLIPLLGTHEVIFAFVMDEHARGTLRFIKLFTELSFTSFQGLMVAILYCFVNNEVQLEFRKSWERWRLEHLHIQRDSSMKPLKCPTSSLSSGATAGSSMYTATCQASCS

Cn1c(CN2CCC(c3cccc(OCc4ccc(F)cc4F)n3)CC2)nc2ccc(C(=O)O)cc21 [Example 9A-03, 2-[(4-{6-[(2,4-difluorobenzyl)oxy]pyridin-2-yl}piperidin-1-yl)methyl]-1-methyl-1H-benzimidazole-6-carboxylic acid]
EC50: 200 nM
Emax [1]: 79%

Cn1c(CN2CCC(c3cccc(OCc4ccc(Cl)cc4)n3)CC2)nc2ccc(C(=O)O)cc21 [Example 9A-05, 2-[(4-{6-[(4-chlorobenzyl)oxy]pyridin-2-yl}piperidin-1-yl)methyl]-1-methyl-1H-benzimidazole-6-carboxylic acid]
EC50: 2700 nM
Emax [1]: 85%

C[C@H]1CN(c2cccc(OCc3ccc(C#N)cc3)n2)CCN1Cc1nc2ccc(C(=O)O)cc2n1C[C@@H]1CCO1 [Example 10A-49, 2-{[(2S)-4-{6-[(4-cyanobenzyl)oxy]pyridin-2-yl}-2-methylpiperazin-1-yl]methyl}-1-[(2S)-oxetan-2-ylmethyl]-1H-benzimidazole-6-carboxylic acid]
EC50: 0.56 nM
Emax [1]: 73%

2-[(4-{6-[(4-chloro-2-fluorobenzyl)oxy]pyridin-2-yl}piperidin-1-yl)methyl]-1-(tetrahydro-2H-pyran-2-ylmethyl)-1H-benzimidazole-6-carboxylic acid [Example 11A-48]
Assay 1 Emax (%) (CHO GLP-1R Clone H6, relative to saturating concentration of full agonist GLP-1 (1 μM), arithmetic mean): 71%

O=C(O)c1ccc2nc(CN3CCC(c4cccc(OCc5ccc(Cl)cc5F)n4)CC3)n(CC3CCOCC3)c2c1 [Example 11A-49, 2-[(4-{6-[(4-chloro-2-fluorobenzyl)oxy]pyridin-2-yl}piperidin-1-yl)methyl]-1-(tetrahydro-2H-pyran-4-ylmethyl)-1H-benzimidazole-6-carboxylic acid]
EC50: 380 nM
Emax [1]: 68%

CC(c1nncn1C)n1c(CN2CCC(c3cccc(OCc4ccc(Cl)cc4F)n3)CC2)nc2ccc(C(=O)O)cc21 (stereo not shown) [Example 11A-52, 2-[(4-{6-[(4-chloro-2-fluorobenzyl)oxy]pyridin-2-yl}piperidin-1-yl)methyl]-1-[1-(4-methyl-4H-1,2,4-triazol-3-yl)ethyl]-1H-benzimidazole-6-carboxylic acid]
EC50: 440 nM
Emax [1]: 86%

Cc1nc(C(C)n2c(CN3CCC(c4cccc(OCc5ccc(Cl)cc5F)n4)CC3)nc3ccc(C(=O)O)cc32)n[nH]1 (stereo not shown) [Example 11A-67, 2-[(4-{6-[(4-chloro-2-fluorobenzyl)oxy]pyridin-2-yl}piperidin-1-yl)methyl]-1-[1-(5-methyl-1H-1,2,4-triazol-3-yl)ethyl]-1H-benzimidazole-6-carboxylic acid]
EC50: 9300 nM
Emax [1]: 100%

Cn1c(CN2CCC(c3cccc(OCc4cccc(F)c4F)n3)CC2)nc2ccc(C(=O)O)cc21 [Example 9A-08, 2-[(4-{6-[(2,3-difluorobenzyl)oxy]pyridin-2-yl}piperidin-1-yl)methyl]-1-methyl-1H-benzimidazole-6-carboxylic acid]
EC50: 2400 nM
Emax [1]: 87%

O=C(O)c1ccc2nc(CN3CCC(c4cccc(OCc5ccc(Cl)cc5F)n4)CC3)n(CCC3CCCCO3)c2c1 (stereo not shown) [Example 11A-05, 2-[(4-{6-[(4-chloro-2-fluorobenzyl)oxy]pyridin-2-yl}piperidin-1-yl)methyl]-1-[2-(tetrahydro-2H-pyran-2-yl)ethyl]-1H-benzimidazole-6-carboxylic acid]
EC50: > 20000 nM

CN1CCOC(Cn2c(CN3CCC(c4cccc(OCc5ccc(Cl)cc5F)n4)CC3)nc3ccc(C(=O)O)cc32)C1 (stereo not shown) [Example 11A-63, 2-[(4-{6-[(4-chloro-2-fluorobenzyl)oxy]pyridin-2-yl}piperidin-1-yl)methyl]-1-[(4-methylmorpholin-2-yl)methyl]-1H-benzimidazole-6-carboxylic acid]
EC50: 2500 nM
Emax [1]: 71%

CN1CCOC(CCn2c(CN3CCC(c4cccc(OCc5ccc(Cl)cc5F)n4)CC3)nc3ccc(C(=O)O)cc32)C1 (stereo not shown) [Example 11A-11, 2-[(4-{6-[(4-chloro-2-fluorobenzyl)oxy]pyridin-2-yl}piperidin-1-yl)methyl]-1[2-(4-methylmorpholin-2-yl)ethyl]-1H-benzimidazole-6-carboxylic acid]
EC50: > 20000 nM

COC[C@H](C)n1c(CN2CCC(c3cccc(OCc4ccc(Cl)cc4F)n3)CC2)nc2ccc(C(=O)O)cc21 [Example 11A-45, 2-[(4-{6-[(4-chloro-2-fluorobenzyl)oxy]pyridin-2-yl}piperidin-1-yl)methyl]-1-[(2S)-1-methoxypropan-2-yl]-1H-benzimidazole-6-carboxylic acid]
EC50: 290 nM
Emax [1]: 74%

COCCCn1c(CN2CCC(c3cccc(OCc4ccc(Cl)cc4F)n3)CC2)nc2ccc(C(=O)O)cc21 [Example 11A-38, 2-[(4-{6-[(4-chloro-2-fluorobenzyl)oxy]pyridin-2-yl}piperidin-1-yl)methyl]-1-(3-methoxypropyl)-1H-benzimidazole-6-carboxylic acid]
EC50: 120 nM
Emax [1]: 80%

Cc1ccc(Cn2c(CN3CCC(c4cccc(OCc5ccc(Cl)cc5F)n4)CC3)nc3ccc(C(=O)O)cc32)cn1 [Example 11A-61, 2-[(4-{6-[(4-chloro-2-fluorobenzyl)oxy]pyridin-2-yl}piperidin-1-yl)methyl]-1-[(6-methylpyridin-3-yl)methyl]-1H-benzimidazole-6-carboxylic acid]
EC50: 1900 nM
Emax [1]: 79%

O=C(O)c1ccc2nc(CN3CCC(c4cccc(OCc5ccc(Cl)cc5F)n4)CC3)n(CC3CCCOC3)c2c1 (stereo not shown) [Example 11A-40, 2-[(4-{6-[(4-chloro-2-fluorobenzyl)oxy]pyridin-2-yl}piperidin-1-yl)methyl]-1-(tetrahydro-2H-pyran-3-ylmethyl)-1H-benzimidazole-6-carboxylic acid]
EC50: 170 nM
Emax [1]: 77%

COCCn1c(CN2CCC(c3cccc(OCc4ccc(C#N)c(C)c4)n3)CC2)nc2ccc(C(=O)O)cc21 [Example 8A-02, 2-((4-(6-((4-cyano-3-methylbenzyl)oxy)pyridin-2-yl)piperidin-1-yl)methyl)-1-(2-methoxyethyl)-1H-benzo[d]imidazole-6-carboxylic acid]
EC50: 150 nM
Emax [1]: 80%

CCn1c(CN2CCC(c3cccc(OCc4ccc(Cl)cc4F)n3)CC2)nc2ccc(C(=O)O)cc21 [Example 10A-39]
EC50: 170 nM
Emax [1]: 69%

Cn1c(CN2CCC(c3cccc(OCc4cc(F)ccc4F)n3)CC2)nc2ccc(C(=O)O)cc21 [Example 9A-14, 2-[(4-{6-[(2,5-difluorobenzyl)oxy]pyridin-2-yl}piperidin-1-yl)methyl]-1-methyl-1H-benzimidazole-6-carboxylic acid]
EC50: 1800 nM
Emax [1]: 93%

Cn1ccnc1Cn1c(CN2CCC(c3cccc(OCc4ccc(Cl)cc4F)n3)CC2)nc2ccc(C(=O)O)cc21 [Example 10A-38]
EC50: 130 nM
Emax [1]: 72%

Cc1nc(Cn2c(CN3CCC(c4cccc(OCc5ccc(Cl)cc5F)n4)CC3)nc3ccc(C(=O)O)cc32)c(C)o1 [Example 11A-55, 2-[(4-{6-[(4-chloro-2-fluorobenzyl)oxy]pyridin-2-yl}piperidin-1-yl)methyl]-1-[(2,5-dimethyl-1,3-oxazol-4-yl)methyl]-1H-benzimidazole-6-carboxylic acid]
EC50: 520 nM
Emax [1]: 80%

O=C(O)c1ccc2nc(CN3CCC(c4cccc(OCc5ccc(Cl)cc5F)n4)CC3)n(CCC3CCOCC3)c2c1 [Example 11A-65, 2-[(4-{6-[(4-chloro-2-fluorobenzyl)oxy]pyridin-2-yl}piperidin-1-yl)methyl]-1-[2-(tetrahydro-2H-pyran-4-yl)ethyl]-1H-benzimidazole-6-carboxylic acid]
EC50: 3100 nM
Emax [1]: 51%

Cn1cnc(CCn2c(CN3CCC(c4cccc(OCc5ccc(Cl)cc5F)n4)CC3)nc3ccc(C(=O)O)cc32)c1 [Example 11A-01, 2-[(4-{6-[(4-chloro-2-fluorobenzyl)oxy]pyridin-2-yl}piperidin-1-yl)methyl]-1-[2-(1-methyl-1H-imidazol-4-yl)ethyl]-1H-benzimidazole-6-carboxylic acid]
EC50: > 10000 nM
Emax [1]: 85%

COCCn1c(CN2CCN(c3cccc(OCc4ccc(Cl)cc4F)n3)[C@@H](C)C2)nc2ccc(C(=O)O)cc21 [Example 1A-13, 2-{[(3S)-4-{6-[(4-chloro-2-fluorobenzyl)oxy]pyridin-2-yl}-3-methylpiperazin-1-yl]methyl}-1-(2-methoxyethyl)-1H-benzimidazole-6-carboxylic acid]
EC50: 210 nM
Emax [1]: 66%

CN1CCCCC1Cn1c(CN2CCC(c3cccc(OCc4ccc(Cl)cc4F)n3)CC2)nc2ccc(C(=O)O)cc21 (stereo not shown) [Example 11A-10, 2-[(4-{6-[(4-chloro-2-fluorobenzyl)oxy]pyridin-2-yl}piperidin-1-yl)methyl]-1-[(1-methylpiperidin-2-yl)methyl]-1H-benzimidazole-6-carboxylic acid]
EC50: > 20000 nM

CC(c1cnn(C)n1)n1c(CN2CCC(c3cccc(OCc4ccc(Cl)cc4F)n3)CC2)nc2ccc(C(=O)O)cc21 (stereo not shown) [Example 11A-60, 2-[(4-{6-[(4-chloro-2-fluorobenzyl)oxy]pyridin-2-yl}piperidin-1-yl)methyl]-1-[1-(2-methyl-2H-1,2,3-triazol-4-yl)ethyl]-1H-benzimidazole-6-carboxylic acid]
EC50: 1600 nM
Emax [1]: 80%

O=C(O)c1ccc2nc(CN3CCC(c4cccc(OCc5ccc(Cl)cc5F)n4)CC3)n(CC3CC(F)(F)C3)c2c1 [Example 11A-51, 2-[(4-{6-[(4-chloro-2-fluorobenzyl)oxy]pyridin-2-yl}piperidin-1-yl)methyl]-1-[(3,3-difluorocyclobutyl)methyl]-1H-benzimidazole-6-carboxylic acid]
EC50: 390 nM
Emax [1]: 69%

CN1CC(Cn2c(CN3CCC(c4cccc(OCc5ccc(Cl)cc5F)n4)CC3)nc3ccc(C(=O)O)cc32)CC1=O (stereo not shown) [Example 11A-42, 2-[(4-{6-[(4-chloro-2-fluorobenzyl)oxy]pyridin-2-yl}piperidin-1-yl]methyl]-1-[(1-methyl-5-oxopyrrolidin-3-yl)methyl]-1H-benzimidazole-6-carboxyl ic acid]
EC50: 190 nM
